# Reference: BindingDB's records for doi:10.7270/Q2TX3D82 (Future University, 2017)
# Target: T1, Dihydrofolate reductase (Bos taurus, UniProt P00376)
# T1 sequence (P00376 whole entry): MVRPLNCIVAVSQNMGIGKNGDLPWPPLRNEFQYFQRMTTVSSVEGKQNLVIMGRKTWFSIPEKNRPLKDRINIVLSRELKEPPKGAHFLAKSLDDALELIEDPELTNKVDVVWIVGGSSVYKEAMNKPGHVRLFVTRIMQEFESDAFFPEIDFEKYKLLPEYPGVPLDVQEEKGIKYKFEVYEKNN
# Assay: Dihydrofolate Reductase (DHFR) Inhibition Assay
# Conditions: pH 7.4; 25 °C
row,IC50 [µM],SMILES
1,11.8,"COc1ccc(Nc2nnc(CSc3nc4cc(OC)c(OC)cc4c(=O)n3-c3ccc(OC)cc3)s2)cc1 [6,7-Dimethoxy-2-((5-(4-methoxyphenylamino)-1,3,4-thiadiazol-2-yl)methylthio)-3-(4-methoxyphenyl)quinazolin-4(3H)-one (31)]"
2,8,"COc1ccc(/C=N/NC(=O)CSc2nc3cc(OC)c(OC)cc3c(=O)n2-c2ccc(OC)cc2)cc1 [N'-[4-Methoxybenzylidene-2-(6,7-dimethoxy)-3-(4-methoxy-phenyl)-4-oxo-3,4-dihydroquinazolin-2-yl-thio]acetohydrazide (19)]"
3,7.5,"COc1ccc(-n2c(SCC(=O)NN)nc3ccc(Cl)cc3c2=O)cc1 [2-[6-Chloro-3-(4-methoxyphenyl)-4-oxo-3,4-dihydroquinazolin-2-yl-thio] acetohydrazide (14)]"
4,14.7,"COc1ccc(-n2c(SCc3nnc(Nc4ccc(Cl)cc4)s3)nc3cc(OC)c(OC)cc3c2=O)cc1 [6,7-Dimethoxy-2-((5-(4-chlorophenylamino)-1,3,4-thiadiazol-2-yl)methylthio)-3-(4-methoxyphenyl)quinazolin-4(3H)-one (30)]"
5,11,"COc1ccc(-n2c(SCc3nnc(S)n3-c3ccc(Cl)cc3)nc3cc(OC)c(OC)cc3c2=O)cc1 [(6,7-Dimethoxy)-2-((4-(4-chlorophenyl)-5-mercapto-4H-1,2,4-triazol-3-yl)methylthio)-3-(4-methoxyphenyl)quinazolin-4(3H)-one (26)]"
6,19,"COc1ccc(-n2c(SCC(=O)N/N=C/c3ccc(Cl)cc3)nc3ccc(Cl)cc3c2=O)cc1 [N'-[4-Chlorobenzylidene-2-(6-chloro)-3-(4-methoxy-phenyl)-4-oxo-3,4-dihydroquinazolin-2-yl-thio]acetohydrazide (16)]"

# More lines, now with the values behind:
row,SMILES,IC50 [µM]
1,"CCOC(=O)CSc1nc2cc(OC)c(OC)cc2c(=O)n1-c1ccc(OC)cc1 [Ethyl 2-(6,7-dimethoxy-3-(4-methoxyphenyl)-4-oxo-3,4-dihydroquinazolin-2-yl-thio)acetate (13)]",14.4
2,"COc1ccc(-n2c(=S)[nH]c3cc(OC)c(OC)cc3c2=O)cc1 [(6,7-Dimethoxy)-2-mercapto-3-(4-methoxyphenyl)quinazolin-4(3H)-ones (11)]",29
3,"COc1ccc(Nc2nnc(CSc3nc4ccc(Cl)cc4c(=O)n3-c3ccc(OC)cc3)s2)cc1 [6-chloro-2-((5-(4-methoxyphenylamino)-1,3,4-thiadiazol-2-yl)methylthio)-3-(4-methoxyphenyl)quinazolin-4(3H)-one (29)]",4.4
4,COc1ccc(-n2c(=S)[nH]c3ccc(Cl)cc3c2=O)cc1 [6-Chloro-2-mercapto-3-(4-methoxyphenyl)quinazolin-4(3H)-ones (10)],11.5
5,"COc1ccc(C(=S)NNC(=O)CSc2nc3cc(OC)c(OC)cc3c(=O)n2-c2ccc(OC)cc2)cc1 [1-[2-(6,7-Dimethoxy)-3-(4-methoxy-phenyl)-4-oxo-3,4-dihydroquinazolin-2-yl-thio)acetyl)-4-(4-methoxy)phenyl]thiosemicarbazide (23)]",0.6
6,"COc1ccc(-n2c(SCc3nnc(Nc4ccc(Cl)cc4)s3)nc3ccc(Cl)cc3c2=O)cc1 [6-Chloro-2-((5-(4-chlorophenylamino)-1,3,4-thiadiazol-2-yl)methylthio)-3-(4-methoxyphenyl)quinazolin-4(3H)-one (28)]",0.4
7,"COc1ccc(-n2c(SCC(=O)NNC(=S)c3ccc(Cl)cc3)nc3ccc(Cl)cc3c2=O)cc1 [1-[2-(6-Chloro)-3-(4-methoxy-phenyl)-4-oxo-3,4-dihydroquinazolin-2-yl-thio)acetyl)-4-(4-chloro)phenyl]thiosemicarbazide (20)]",1.2
8,"COc1ccc(-n2c(SCC(=O)NN)nc3cc(OC)c(OC)cc3c2=O)cc1 [2-[(6,7-Dimethoxy)-3-(4-methoxyphenyl)-4-oxo-3,4-dihydroquinazolin-2-yl-thio] acetohydrazide (15)]",0.8
9,"COc1ccc(-n2c(S)nnc2CSc2nc3cc(OC)c(OC)cc3c(=O)n2-c2ccc(OC)cc2)cc1 [(6,7-Dimethoxy)-2-((4-(4-methoxyphenyl)-5-mercapto-4H-1,2,4-triazol-3-yl)methylthio)-3-(4-methoxyphenyl)quinazolin-4(3H)-one (27)]",10.8
10,"CCOC(=O)CSc1nc2ccc(Cl)cc2c(=O)n1-c1ccc(OC)cc1 [Ethyl 2-(6-chloro-3-(4-methoxyphenyl)-4-oxo-3,4-dihydroquinazolin-2-yl-thio)acetate (12)]",1.7
11,"COc1ccc(/C=N/NC(=O)CSc2nc3ccc(Cl)cc3c(=O)n2-c2ccc(OC)cc2)cc1 [N'-[4-Methoxybenzylidene-2-(6-chloro)-3-(4-methoxy-phenyl)-4-oxo-3,4-dihydroquinazolin-2-yl-thio]acetohydrazide (17)]",0.01
12,"COc1ccc(-n2c(SCC(=O)N/N=C/c3ccc(Cl)cc3)nc3cc(OC)c(OC)cc3c2=O)cc1 [N'-[4-Chlorobenzylidene-2-(6,7-dimethoxy)-3-(4-methoxy-phenyl)-4-oxo-3,4-dihydroquinazolin-2-yl-thio]acetohydrazide (18)]",7.6
